We go through six compounds from publication PMC10578927, “An unconventional gatekeeper mutation sensitizes inositol hexakisphosphate kinases to an allosteric inhibitor” (eLife, 2023).

For orientation: Km means the substrate concentration at which the rate is half of its maximum. The IC50 is the midpoint of a concentration-inhibition curve.

Each structure is given as a SMILES string.

The target in data set [1] is T1, IP6K1^L210V (Homo sapiens, UniProt Q92551, L210V).
T1 construct: made in house; host or cells: E. coli Arctic Express
Briefly: Michaelis–Menten and Lineweaver–Burk kinetics (NMR). Type of data set: biochemical. The following applies: Michaelis–Menten, read-out: KM for ATP. Here is the method:
(§1) Kinetic assays were performed in D2O in a total volume of 500 µl containing the same buffer components for IP6K and IP6KA constructs as stated for the NMR activity assays above. […] If applicable, inhibitor was added as a DMSO-d6 stock at a final DMSO concentration of 1%. Otherwise, DMSO-d6 was added to the same percentage. The samples were equilibrated at 37°C for 5 min and the reaction initiated by adding 100 µM [^13C6]-InsP6. The reaction time was adjusted so that conversion would not exceed 20% to remain in the linear range for initial velocity measurements. The reaction was quenched with 38 µl 700 mM EDTA pH* 8.0 and transferred into an NMR tube before being measured on a Bruker […] 600 PLUS with an NMR pulse program developed previously ([Harmel et al., 2019]). Initial velocities were calculated by dividing the amount of generated product by the product of reaction time in seconds and mass of the kinase in mg.

In data set [2] the target is T2, IP6K1^wt (Homo sapiens, UniProt Q92551).
T2 construct: made in house; host or cells: E. coli Arctic Express
The data set is described as above. The data set is classed as biochemical. Here is the method:
as §1

The target in data set [3] is T2, IP6K1^wt. Briefly: High-throughput screen, reverse kinase reaction (5PP-InsP5 + ADP), Kinase-Glo luminescence. Type of data set: biochemical. The following applies: dose-dependent reconfirmation. (Kinase-Glo reads ATP consumption through a luciferase reaction.)
Data set [4] has as its system HepG2. Briefly: Cytotoxicity, cell survival after 72 hr incubation. The data set is classed as cell-based. The following applies: HepG2, 10 µM, 72 hr incubation. Here is the method:
(§2) Supplementary file elife-88982-supp2.xlsx: Supplementary file 2. Cytotoxicity of selected hits indicated by cell survival after 72 hr incubation at 10 µM concentration. All compounds were measured in independent triplicates and errors represent standard deviation. Redox activity of selected compounds measured via a photometric surrogate assay. Reactions contained 50 mM HEPES pH 7.5, 50 mM NaCl, 200 mM DTT, and 20 µM resazurin, and were incubated for 1 hr at 37°C.

Data set [5] deals with HEK293. Briefly: Cytotoxicity, cell survival after 72 hr incubation. The data set is classed as cell-based. The settings on record: HEK293, 10 µM, 72 hr incubation. Here is the method: as §2
Data set [6] deals with T1, IP6K1^L210V. Briefly: High-throughput screen, reverse kinase reaction (5PP-InsP5 + ADP), Kinase-Glo luminescence. Type of data set: biochemical. The source says:
Although the NMR assay described above provides direct product detection and the ability to distinguish the PP-InsP isomers ([Harmel et al., 2019]), it is inherently slow and thus not compatible with a high-throughput screen. The use of luminescence-based readouts of ATP consumption to measure IP6K activity is error-prone due to the kinase’s unusually low affinity for ATP, the sensitivity to the ATP/ADP ratio, and its inherent ATPase activity ([Wundenberg et al., 2014]; [Voglmaier et al., 1996]). Nevertheless, we were able to take advantage of these properties by examining the reverse reaction of IP6K1 with the Kinase-Glo assay, where 5PP-InsP5 and ADP are converted to InsP6 and ATP (Figure 3a).
The following solutions were prepared as 4× stock solutions: kinase buffer (HEPES pH 7.4, NaCl, BSA, MgCl2, Tween-20, DTT, and IP6K1^L210V), DMSO/inhibitor, ADP, and 5PP-InsP5. Final concentrations after optimization were 1 mM ADP, 20 mM HEPES, 50 mM NaCl, 0.2 mg/ml BSA, 2 mM MgCl2, 0.05% Tween-20, 1 mM DTT, 250 nM IP6K1^L210V, and 50 μM 5PP-InsP5. The reactions were carried out in 384-well plates following this procedure. 5 µl 4× kinase buffer (buffer only for no kinase controls), 5 µl 4× DMSO or inhibitor and 5 µl 4× ADP solution were subsequently added to all wells. After 10 min equilibration, 5 μl 4× 5PP-InsP5 were added to start the reaction (milli-Q water for negative controls). After 3 hr at room temperature, 20 µl of Promega Kinase-Glo Plus reagent were added and the luminescence read out with a Tecan Infinite M Plex reader using 100-ms exposure time after 10 min of equilibration.
ADP was prepared in a 2× stock solution in milli-Q water and the pH adjusted to 7.0. The following solutions were prepared as 4× stock solutions: kinase buffer (HEPES pH 7.4, NaCl, BSA, MgCl2, Tween-20, DTT, and IP6K1^L210V) and 5PP-InsP5. Final concentrations were 1 mM ADP, 20 mM HEPES, 50 mM NaCl, 0.2 mg/ml BSA, 2 mM MgCl2, 0.05% Tween-20, 1 mM DTT, 250 nM IP6K1^L210V, and 50 µM 5PP-InsP5. The reactions were carried out in 384-well plates following this procedure. 10 µl 2× ADP solution were added to all wells, then 0.2 µl DMSO or compound (1 mM in DMSO) were added followed by the addition of 5 µl 4× kinase buffer. For dose–response curves, compounds were added in serial dilution (twofold serial dilutions in DMSO across multiple plates prior to compound transfer to assay plates, 9 concentrations in total). After 10 min equilibration, 5 µl 4× 5PP-InsP5 were added to start the reaction (milli-Q water for negative controls). After 3 hr at room temperature, 20 µl of Promega Kinase-Glo Plus reagent were added and the luminescence read out with a Tecan Infinite M Plex or Perkin Elmer EnVision reader using 100ms exposure time after 10 min of equilibration. In the counter screen, dose–response curves were measured in the absence of kinase and presence of 50 µM ATP.

The target of data set [7] is T1, IP6K1^L210V. Briefly: NMR activity assay, [13C6]-InsP6 to 5PP-InsP5, with ATP-regenerating system. The data set is classed as biochemical. The following applies: for inhibition of IP6K1^L210V: 10 µM concentration. The source says: (§3) The gatekeeper mutants L210G and L210A of IP6K1 were generated by site-directed mutagenesis and the enzymes were recombinantly expressed, analogous to the WT kinase, as MBP-fusion proteins. To assess their catalytic activity, we used an NMR assay that harnesses fully ^13C-labeled InsP6 as a substrate and enables direct product readout of 5PP-InsP5 (Figure 2b and Figure 2—figure supplement 1; [Puschmann et al., 2019]; [Harmel et al., 2019]). […] Likewise, IP6K2 suffered a drastic decline in substrate turnover upon gatekeeper mutation to glycine (Figure 2—figure supplement 2).
(§4) The NMR assay for IP6K activity was performed similarly as described before ([Harmel et al., 2019]) with slight alterations. Enzyme assays were performed in D2O in a total volume of 150 µl containing 20 mM 4-(2-hydroxyethyl)-1-piperazineethanesulfonic acid (HEPES) pH* 6.8, 50 mM NaCl, 6 mM MgCl2, 1 mM ATP, 0.2 mg/ml BSA, 1 mM DTT, 5 mM creatine phosphate and 1 U/ml creatine kinase (ATP-regenerating system) and 50 nM kinase if not otherwise stated. HEPES, NaCl, and BSA were prepared as buffer A and DTT and creatine phosphate as buffer B in D2O and were adjusted to pH* 6.8, respectively. If applicable, inhibitor was added as a DMSO-d6 stock in a twofold dilution series at a final DMSO concentration of 1% if not otherwise mentioned. Otherwise, DMSO-d6 was added to the same percentage. The samples were equilibrated at 37°C for 3 min and the reaction initiated by adding 100 µM [^13C6]-InsP6.

The target of data set [8] is T2, IP6K1^wt. Described as above. The data set is classed as biochemical.
Source text: as §3, §4

Data set [9] relates to IP6K. The following applies: Figure 1b; ref Padmanabhan et al., 2009 (TNP); Wormald et al., 2019 (Barrow-24); Moritoh et al., 2021; Terao et al., 2018 (SC-919); cited from earlier work.

T1 sequence (Q92551 whole entry L210V): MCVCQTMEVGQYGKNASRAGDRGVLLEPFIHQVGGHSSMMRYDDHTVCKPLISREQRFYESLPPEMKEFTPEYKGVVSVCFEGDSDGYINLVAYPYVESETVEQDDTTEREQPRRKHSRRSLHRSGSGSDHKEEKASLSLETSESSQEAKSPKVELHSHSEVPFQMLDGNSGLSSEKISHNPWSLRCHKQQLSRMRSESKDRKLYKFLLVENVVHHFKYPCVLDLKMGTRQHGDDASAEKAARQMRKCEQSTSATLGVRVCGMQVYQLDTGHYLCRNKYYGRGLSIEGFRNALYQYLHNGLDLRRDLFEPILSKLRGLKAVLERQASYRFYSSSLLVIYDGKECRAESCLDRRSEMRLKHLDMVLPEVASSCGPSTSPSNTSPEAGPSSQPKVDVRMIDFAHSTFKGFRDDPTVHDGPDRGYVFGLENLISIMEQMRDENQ
T2 sequence (Q92551 whole entry): as the sequence (Q92551 whole entry L210V) above, with V210L counted along it

Turning to `Nc1ncnc2c1ncn2[C@@H]1O[C@H](COP(=O)(O)OP(=O)(O)OP(=O)(O)O)[C@@H](O)[C@H]1O` [ATP], the Km in [1] worked out at 412 ± 81 µM; in [2] (Michaelis–Menten, read-out: KM for ATP), 186 ± 23 µM.

Consider `O=c1c(O)c(-c2ccc(O)c(O)c2)oc2cc(O)cc(O)c12` [compound 405356, quercetin, reference compound], for which the concentration for half-maximal inhibition (IC50) in data set [3] was 12100 nM; in data set [6] (Kinase-Glo, reverse reaction, dose-dependent reconfirmation) it was 2860 nM. Further, the “Cell number (%)” value in data set [4] came out at 65.9 ± 16.9%; in [5], 104.0 ± 1.4%. Also, the Z-score in [6] (primary screen, IP6K1^L210V) is given as -14.6. In addition, in data set [6] (primary screen, residual activity of IP6K1^L210V), the “%Activity” value came to 7.8%.

Consider `Cn1c(=O)n(-c2ccc(C(C)(C)C#N)cc2)c2c3cc(-c4cnc5ccccc5c4)ccc3ncc21` [BEZ235, reference compound], for which, in [7] (NMR assay), the “inhibition of IP6K1^L210V” value is on record as “inhibition of IP6K1^L210V was not observed either”. Further, in data set [8] (10 µM concentration), the “inhibitory activity against IP6K1^wt” value is listed as “none of these compounds exhibited any inhibitory activity”.

Consider `O=C1c2ccccc2C(=O)N1c1ccc(-c2nc3ccc(N4C(=O)c5ccccc5C4=O)cc3[nH]2)cc1` [A1], for which the “inhibition of IP6K1^L210V” value in [7] (NMR assay) is “completely inactive”.

With `O=[N+]([O-])c1ccc(CNc2nc(NCc3cccc(C(F)(F)F)c3)nc3[nH]cnc23)cc1` [TNP, N2-(m-trifluorobenzyl)-N6-(p-nitrobenzyl)purine, reference compound], the IC50 was 470 nM in data set [9]; 1410 nM in [7] (NMR assay, Figure 4—figure supplement 2b); 2150 nM in data set [8] (Figure 4—figure supplement 2b). Further, the “mechanism of inhibition (Lineweaver–Burk)” value in data set [2] (versus ATP) is “competitive mechanism of action”. In addition, in [7] (NMR IC50 curves), the “difference in potency against IP6K1^wt and IP6K1^L210V” value was “no significant difference in potency”.

For the compound `O=C(O)c1ccc2c(c1)C(=O)N(c1ccc(-c3nc4ccccc4[nH]3)cc1)C2=O` [A2], the “inhibition of IP6K1^L210V” value in data set [7] (NMR assay) is “inhibited IP6K1^L210V, albeit with severely reduced potency”.
